SMILES strings stand for the structures.

The subject of this test is BJAB cells. The experiment in a line: BJAB cell proliferation (Cell Titer Glo). Type of test: cell-based. Conditions: Homo sapiens, read-out: EC50. The protocol:
Cells were seeded in white Corning Costar 96-well assay plates at 2500 cells/well in 50 μL of medium. Serial dilutions of test compounds were made in cell culture medium/FBS+0.2% DMSO, and transferred to assay plates in a volume of 50 μL (DMSO at 0.1% final). Plates were maintained at 37° C. for approximately 72 hours. The effect of compounds on cell proliferation was evaluated using the Cell Titer Glo reagent (Promega), according to the manufacturer's instructions. Briefly, 100 μL of reagent was added per well, and after a 10 minute incubation luminescence values were determined on a plate reader (Tecan F200PRO). The percent of luminescence signal relative to untreated controls was calculated for each compound concentration, and EC50 values were determined from dose response data by non-linear regression analysis using Prism (GraphPad). The mTor inhibitor Torin1 (Liu, et al. (2010) J. Med. Chem. 53, 7146.) was used as a control. The data are summarized in the compound table provided above.
A general note: ATP-based viability assays read luminescence as a measure of living cells.
On to `Cc1nn(-c2nc(-c3ccc(Cl)c(Cl)c3)c(SC(C)C)s2)c(C(=O)O)c1-c1ccc(C(F)(F)F)cc1` [Compound 52, 1-(4-(3,4-dichlorophenyl)-5-(isopropylthio)thiazol-2-yl)-3-methyl-4-(4-(trifluoromethyl)phenyl)-1H-pyrazole-5-carboxylic Acid], for which the EC50 (commonly the concentration needed to bring the measured effect to its halfway point) was in the range of 10 to 25 µM.
Turning to `Cc1nn(-c2nc(-c3ccc(Cl)c(Cl)c3)c(SC(C)C)s2)c(C(=O)O)c1C(O)c1ccccc1` (centres unmarked) [Compound 53, 1-(4-(3,4-dichlorophenyl)-5-(isopropylthio)thiazol-2-yl)-4-(hydroxy(phenyl)methyl)-3-methyl-1H-pyrazole-5-carboxylic Acid], the EC50 was above 50 µM.
As for `Cc1nn(-c2nc(-c3ccc(Cl)c(Cl)c3)c([S+]([O-])C(C)C)s2)c(C(=O)O)c1Cc1ccccc1[N+](=O)[O-]` (centres unmarked) [Compound 54, 1-(4-(3,4-dichlorophenyl)-5-(isopropylsulfinyl)thiazol-2-yl)-3-methyl-4-(2-nitrobenzyl)-1H-pyrazole-5-carboxylic acid], the EC50 is 25 to 50 µM.
Take `Cc1nn(-c2nc(-c3ccc(Cl)c(Cl)c3)c(S(=O)(=O)C(C)C)s2)c(C(=O)O)c1Cc1ccccc1[N+](=O)[O-]` [Compound 55, 1-(4-(3,4-dichlorophenyl)-5-(isopropylsulfonyl)thiazol-2-yl)-3-methyl-4-(2-nitrobenzyl)-1H-pyrazole-5-carboxylic acid]: the EC50 lay within 10 to 25 µM.
On to `Cc1nn(-c2nc(-c3ccc(Cl)c(Cl)c3)c(SC(C)C)s2)c(C(=O)O)c1-c1nnc2ccccn12` [Compound 56, 4-([1,2,4]triazolo[4,3-a]pyridin-3-yl)-1-(4-(3,4-dichlorophenyl)-5-(isopropylthio)thiazol-2-yl)-3-methyl-1H-pyrazole-5-carboxylic Acid], for which the EC50 is above 50 µM.
With `Cc1noc(C)c1-c1c(C)nn(-c2nc(-c3ccc(Cl)c(Cl)c3)c(SC(C)C)s2)c1C(=O)O` [Compound 57, 1-(4-(3,4-dichlorophenyl)-5-(isopropylthio)thiazol-2-yl)-4-(3,5-dimethylisoxazol-4-yl)-3-methyl-1H-pyrazole-5-carboxylic acid], the EC50 fell in the range of 10 to 25 µM.
The result for `Cc1nn(-c2nc(-c3ccc(Cl)c(Cl)c3)c(SC(C)C)s2)c(C(=O)O)c1-c1nc2ccccc2[nH]1` [Compound 58, 4-(1H-benzo[d]imidazol-2-yl)-1-(4-(3,4-dichlorophenyl)-5-(isopropylthio)thiazol-2-yl)-3-methyl-1H-pyrazole-5-carboxylic Acid] reads 25 to 50 µM.
On to `Cc1nn(-c2nc(-c3ccc(Cl)c(Cl)c3)c(SC(C)C)s2)c(C(=O)O)c1-c1cccc(Cl)c1C` [Compound 59, 4-(3-chloro-2-methylphenyl)-1-(4-(3,4-dichlorophenyl)-5-(isopropylthio)thiazol-2-yl)-3-methyl-1H-pyrazole-5-carboxylic Acid], for which the EC50 lay within 5 to 10 µM.
In the case of `Cc1nn(-c2nc(-c3ccc(Cl)c(Cl)c3)c(SC(C)C)s2)c(C(=O)O)c1-c1cc(C(F)(F)F)cc(C(F)(F)F)c1` [Compound 60, 4-(3,5-bis(trifluoromethyl)phenyl)-1-(4-(3,4-dichlorophenyl)-5-(isopropylthio)thiazol-2-yl)-3-methyl-1H-pyrazole-5-carboxylic Acid], the EC50 lay within 1 to 5 µM.
The figure for `Cc1nn(-c2nc(-c3ccc(Cl)c(Cl)c3)c(SC(C)C)s2)c(C(=O)O)c1-c1cccc(C(C)C)c1` [Compound 61, 1-(4-(3,4-dichlorophenyl)-5-(isopropylthio)thiazol-2-yl)-4-(3-isopropylphenyl)-3-methyl-1H-pyrazole-5-carboxylic Acid] is 1 to 5 µM.
The figure for `COc1ccc(C)cc1-c1c(C)nn(-c2nc(-c3ccc(Cl)c(Cl)c3)c(SC(C)C)s2)c1C(=O)O` [Compound 62, 1-(4-(3,4-dichlorophenyl)-5-(isopropylthio)thiazol-2-yl)-4-(2-methoxy-5-methylphenyl)-3-methyl-1H-pyrazole-5-carboxylic acid] is 5 to 10 µM; for `Cc1nn(-c2nc(-c3ccc(Cl)c(Cl)c3)c(SC(C)C)s2)c(C(=O)O)c1-c1ncc[nH]1` [Compound 63, 1-(4-(3,4-dichlorophenyl)-5-(isopropylthio)thiazol-2-yl)-4-(1H-imidazol-2-yl)-3-methyl-1H-pyrazole-5-carboxylic acid] it is 10 to 25 µM; for `Cc1nn(-c2nc(-c3ccc(Cl)c(Cl)c3)c(SC(C)C)s2)c(C(=O)O)c1-c1cnn2ccccc12` [Compound 64, 1-(4-(3,4-dichlorophenyl)-5-(isopropylthio)thiazol-2-yl)-3-methyl-4-(pyrazolo[1,5-a]pyridin-3-yl)-1H-pyrazole-5-carboxylic acid] it is 10 to 25 µM.
The result for `Cc1nn(-c2nc(-c3ccc(Cl)c(Cl)c3)c(SC(C)C)s2)c(C(=O)O)c1-c1cnn2cccnc12` [Compound 65, 1-(4-(3,4-dichlorophenyl)-5-(isopropylthio)thiazol-2-yl)-3-methyl-4-(pyrazolo[1,5-a]pyrimidin-3-yl)-1H-pyrazole-5-carboxylic acid] reads 25 to 50 µM; that for `Cc1nn(-c2nc(-c3ccc(Cl)c(Cl)c3)c(SC(C)C)s2)c(C(=O)O)c1-c1cnn(C)c1` [Compound 66, 2-(4-(3,4-dichlorophenyl)-5-(isopropylthio)thiazol-2-yl)-2′,5-dimethyl-4,4′-bi(2H-pyrazole)-3-carboxylic acid], 5 to 10 µM; that for `Cc1nn(-c2nc(-c3ccc(Cl)c(Cl)c3)c(S(=O)(=O)C(C)C)s2)c(C(=O)O)c1-c1cnn(C)c1` [Compound 67, 2-(4-(3,4-dichlorophenyl)-5-(isopropylsulfonyl)thiazol-2-yl)-2′,5-dimethyl-4,4′-bi(2H-pyrazole)-3-carboxylic acid], 25 to 50 µM.
Take `Cc1nn(-c2nc(-c3ccc(Cl)c(Cl)c3)c(SC(C)C)s2)c(C(=O)O)c1-c1nc2ccccc2n1C` [Compound 68, 1-(4-(3,4-dichlorophenyl)-5-(isopropylthio)thiazol-2-yl)-3-methyl-4-(1-methy-1H-benzo[d]imidazol-2-yl)-1H-pyrazole-5-carboxylic acid]: the EC50 is above 50 µM.
The result for `Cc1nn(-c2nc(-c3ccc(Cl)c(Cl)c3)c(SC(C)C)s2)c(C(=O)O)c1-c1cncc(C#N)c1` [Compound 69, 4-(5-cyanopyridin-3-yl)-1-(4-(3,4-dichlorophenyl)-5-(isopropylthio)thiazol-2-yl)-3-methyl-1H-pyrazole-5-carboxylic Acid] reads 10 to 25 µM; that for `CCOc1ncccc1-c1c(C)nn(-c2nc(-c3ccc(Cl)c(Cl)c3)c(SC(C)C)s2)c1C(=O)O` [Compound 70, 1-(4-(3,4-dichlorophenyl)-5-(isopropylthio)thiazol-2-yl)-4-(2-ethoxypyridin-3-yl)-3-methyl-1H-pyrazole-5-carboxylic Acid], 10 to 25 µM.
Consider `Cc1cc(-c2c(C)nn(-c3nc(-c4ccc(Cl)c(Cl)c4)c(SC(C)C)s3)c2C(=O)O)n(C)n1` [Compound 71, 2′-(4-(3,4-dichlorophenyl)-5-(isopropylthio)thiazol-2-yl)-2,5,5′-trimethyl-3,4′-bi(2H-pyrazole)-3′-carboxylic Acid], for which the EC50 was in the range of 10 to 25 µM.
The figure for `Cc1nn(-c2nc(-c3ccc(Cl)c(Cl)c3)c(SC(C)C)s2)c(C(=O)O)c1-c1cncnc1` [Compound 72, 1-(4-(3,4-dichlorophenyl)-5-(isopropylthio)thiazol-2-yl)-3-methyl-4-(pyrimidin-5-yl)-1H-pyrazole-5-carboxylic Acid] is 10 to 25 µM.
Consider `Cc1nn(-c2nc(-c3ccc(Cl)c(Cl)c3)c(SC(C)C)s2)c(C(N)=O)c1-c1cc(C(F)(F)F)cc(C(F)(F)F)c1` [Compound 73, 4-(3,5-bis(trifluoromethyl)phenyl)-1-(4-(3,4-dichlorophenyl)-5-(isopropylthio)thiazol-2-yl)-3-methyl-1H-pyrazole-5-carboxamide], for which the EC50 was above 40 µM.
The result for `Cc1cc(C)nc(-c2c(C)nn(-c3nc(-c4ccc(Cl)c(Cl)c4)c(SC(C)C)s3)c2C(=O)O)n1` [Compound 74, 1-(4-(3,4-dichlorophenyl)-5-(isopropylthio)thiazol-2-yl)-4-(4,6-dimethylpyrimidin-2-yl)-3-methyl-1H-pyrazole-5-carboxylic acid] reads 25 to 50 µM.
The figure for `Cc1nn(-c2nc(-c3ccc(Cl)c(Cl)c3)c(SC(C)C)s2)c(C(=O)NCc2ccccn2)c1-c1cc(C(F)(F)F)cc(C(F)(F)F)c1` [Compound 75, 4-(3,5-bis(trifluoromethyl)phenyl)-1-(4-(3,4-dichlorophenyl)-5-(isopropylthio)thiazol-2-yl)-3-methyl-N-(pyridin-2-ylmethyl)-1H-pyrazole-5-carboxamide] is above 40 µM; for `Cc1nn(-c2nc(-c3ccc(Cl)c(Cl)c3)c(SC(C)C)s2)c(C(=O)N(C)CCO)c1-c1cc(C(F)(F)F)cc(C(F)(F)F)c1` [Compound 76, 4-(3,5-bis(trifluoromethyl)phenyl)-1-(4-(3,4-dichlorophenyl)-5-(isopropylthio)thiazol-2-yl)-N-(2-hydroxyethyl)-N,3-dimethyl-1H-pyrazole-5-carboxamide] it is above 40 µM; for `Cc1nn(-c2nc(-c3ccc(Cl)c(Cl)c3)c(SC(C)C)s2)c(C(=O)N(C)c2nnc(C(F)(F)F)s2)c1-c1cc(C(F)(F)F)cc(C(F)(F)F)c1` [Compound 77, 4-(3,5-bis(trifluoromethyl)phenyl)-1-(4-(3,4-dichlorophenyl)-5-(isopropylthio)thiazol-2-yl)-N,3-dimethyl-N-(5-(trifluoromethyl)-1,3,4-thiadiazol-2-yl)-1H-pyrazole-5-carboxamide] it is above 40 µM.

(Values after patent US10537558B2 (Bantam Pharmaceutical, LLC, priority 2015, dated 2020).)
